Drawing on US9090600B2, “Fungicidal 4-substituted-3-{phenyl[(heterocyclylmethoxy)imino]methyl}-1,2,4-oxadizol-5(4H)-one derivatives” (BAYER INTELLECTUAL PROPERTY GMBH, priority 2011, dated 2015), this text covers LogP and Eff. % for 53 molecules.

The conditions of data set [1]: pH 2.7.
Data set [2] deals with Phytophthora infestans. The format is in vivo. Conditions: tomato plants, spray, 500 ppm, grading 5 days after contamination.

Marks after values point to notes of the source that are not given here.

The LogP is the decadic logarithm of the partition coefficient of the neutral form, usually between octanol and water. Higher therefore signals a more lipophilic compound. In the case of `CCC(C)C(=O)Nc1cccc(CO/N=C(/c2ccccc2)c2noc(=O)n2C)n1` (stereo not shown) [Example 132], in data set [1], the LogP is 3.41 [a]. Moreover, the Eff. % in data set [2] amounted to 97%.

Turning to `Cc1ccccc1CCOC(=O)Nc1cccc(CO/N=C(/c2ccccc2)c2noc(=O)n2C)n1` [Example 133], the LogP in data set [1] was 4.51 [a]. The same molecule returned an Eff. % in data set [2] of 88%.

Take `Cn1c(/C(=N\OCc2cccc(NC(=O)c3ccco3)n2)c2ccccc2)noc1=O` [Example 134]: the LogP in data set [1] is 3.13 [a]. Besides, the Eff. % in data set [2] is 99%.

As to `Cn1c(/C(=N\OCc2cccc(NC(=O)C3(C)CC3)n2)c2ccccc2)noc1=O` [Example 137], the LogP in data set [1] was 3.31 [a]. Besides, in data set [2], the Eff. % turned out to be 98%.

Turning to `Cn1c(/C(=N\OCc2cccc(NC(=O)Oc3ccccc3)n2)c2ccccc2)noc1=O` [Example 138], the LogP in data set [1] is 3.73 [a]. The molecule further yielded an Eff. % in data set [2] of 97%.

In the case of `Cn1c(/C(=N\OCc2cccc(NC(=O)C(C)(C)C)n2)c2cccc(F)c2)noc1=O` [Example 139], the LogP in data set [1] is 3.61 [a]. In data set [2], this molecule had an Eff. % of 100%.

For the molecule `Cc1cccc(/C(=N/OCc2cccc(NC(=O)OC(C)(C)C)n2)c2noc(=O)n2C)c1` [Example 142], the log partition coefficient (LogP) in data set [1] is 4.34 [a]. Moreover, the Eff. % in data set [2] was 100%.

As for `Cn1c(/C(=N\OCc2csc(NC(=O)c3cccc(I)c3)n2)c2ccccc2)noc1=O` [Example 143], the LogP in data set [1] is 4.19 [a]. Moreover, the Eff. % in data set [2] came to 75%.

For the molecule `Cc1ccc(C(=O)Nc2cccc(CO/N=C(/c3ccccc3)c3noc(=O)n3C)n2)cc1` [Example 144], the lipophilicity (LogP) in data set [1] was 3.85 [a]. Also, in data set [2], the Eff. % is 95%.

Regarding `CC(COC(=O)Nc1cccc(CO/N=C(/c2ccccc2)c2noc(=O)n2C)n1)c1ccccc1` (stereo not shown) [Example 145], in data set [1], the LogP is 4.46 [a]. In data set [2], this molecule displayed an Eff. % of 83%.

For the molecule `Cn1c(/C(=N\OCc2cccc(NC(=O)CC34CC5CC(CC(C5)C3)C4)n2)c2ccccc2)noc1=O` [Example 146], the LogP in data set [1] was 5.08 [a]. Also, the Eff. % in data set [2] amounted to 93%.

For the molecule `Cn1c(/C(=N\OCc2cccc(NC(=O)C3CCCCC3)n2)c2ccccc2)noc1=O` [Example 147], the LogP in data set [1] was 3.92 [a]. The molecule further returned an Eff. % in data set [2] of 100%.

On to `CC(C)=CCC(=O)Nc1cccc(CO/N=C(/c2ccccc2)c2noc(=O)n2C)n1` [Example 153], for which the LogP in data set [1] was 3.59 [a]. The molecule also had an Eff. % in data set [2] of 100%.

As to `CC(Oc1cccc(Br)c1)C(=O)Nc1nc(CO/N=C(/c2ccccc2)c2noc(=O)n2C)cs1` (stereo not shown) [Example 155], the LogP in data set [1] is 4.17 [a]. In data set [2], this molecule displayed an Eff. % of 92%.

For the molecule `CCCCCOC(=O)Nc1cccc(CO/N=C(/c2ccc(F)cc2)c2noc(=O)n2C)n1` [Example 161], the LogP in data set [1] is 4.51 [a]. For the same molecule, the Eff. % in data set [2] is listed as 92%.

With `Cn1c(/C(=N\OCc2cccc(NC(=O)C3(c4ccccc4)CC3)n2)c2ccccc2)noc1=O` [Example 165], the LogP in data set [1] is 4.43 [a]. Further, the Eff. % in data set [2] is reported as 70%.

Turning to `Cc1ccoc1C(=O)Nc1cccc(CO/N=C(/c2ccccc2)c2noc(=O)n2C)n1` [Example 170], the lipophilicity (LogP) in data set [1] was 3.71 [a]. In data set [2], this molecule returned an Eff. % of 100%.

As to `COc1ccccc1CCOC(=O)Nc1cccc(CO/N=C(/c2ccccc2)c2noc(=O)n2C)n1` [Example 175], the LogP in data set [1] was 4.31 [a]. In data set [2], the Eff. % came out at 93%.

For `CCCCC(=O)Nc1cccc(CO/N=C(/c2ccccc2)c2noc(=O)n2CC)n1` [Example 176], the LogP in data set [1] was 3.76 [a]. The Eff. % in data set [2] turned out to be 100%.

With `CC(C)C(=O)Nc1cccc(CO/N=C(/c2ccccc2)c2noc(=O)n2C)n1` [Example 177], the LogP in data set [1] was 3.11 [a]. This molecule had an Eff. % in data set [2] of 100%.

With `Cn1c(/C(=N\OCc2cccc(NC(=O)c3ccccc3Cl)n2)c2ccccc2)noc1=O` [Example 178], the LogP in data set [1] was 3.64 [a]. In data set [2], the Eff. % amounted to 99%.

Regarding `CC(C)CCOC(=O)Nc1cccc(CO/N=C(/c2ccccc2)c2noc(=O)n2C)n1` [Example 182], the LogP in data set [1] is 4.39 [a]. In data set [2], this molecule gave an Eff. % of 100%.

As to `COc1ccccc1CCC(=O)Nc1cccc(CO/N=C(/c2ccccc2)c2noc(=O)n2C)n1` [Example 184], in data set [1], the LogP is 3.87 [a]. Further, the Eff. % in data set [2] came out at 99%.

On to `Cn1c(/C(=N\OCc2cccc(NC(=O)OCCc3ccccc3F)n2)c2ccccc2)noc1=O` [Example 186], for which the LogP in data set [1] is 4.21 [a]. The same molecule displayed an Eff. % in data set [2] of 83%.

For the molecule `Cn1c(/C(=N\OCc2cccc(NC(=O)c3ccc(Br)cc3)n2)c2ccccc2)noc1=O` [Example 187], the LogP in data set [1] is 4.14 [a]. The Eff. % in data set [2] was 80%.

Consider `CSCCC(=O)Nc1cccc(CO/N=C(/c2ccccc2)c2noc(=O)n2C)n1` [Example 188], for which the LogP in data set [1] was 3.09 [a]. The Eff. % in data set [2] came out at 99%.

`CCC(CC)COC(=O)Nc1cccc(CO/N=C(/c2ccccc2)c2noc(=O)n2C)n1` [Example 192]: in data set [1], the LogP is 4.78 [a]. Also, the Eff. % in data set [2] came out at 100%.

Turning to `CCCCC(C)OC(=O)Nc1cccc(CO/N=C(/c2ccccc2)c2noc(=O)n2C)n1` (stereo not shown) [Example 200], the LogP in data set [1] was 4.78 [a]. In data set [2], this molecule gave an Eff. % of 98%.

In the case of `CCn1c(/C(=N\OCc2cccc(NC(=O)OCc3ccccc3)n2)c2ccccc2)noc1=O` [Example 201], the LogP in data set [1] is 4.24 [a]. This molecule displayed an Eff. % in data set [2] of 100%.

Regarding `Cn1c(/C(=N\OCc2cccc(NC(=O)c3cc(F)cc(F)c3)n2)c2ccccc2)noc1=O` [Example 202], the LogP in data set [1] is 3.92 [a]. In data set [2], this molecule registered an Eff. % of 98%.

For `Cc1cccc(CCOC(=O)Nc2cccc(CO/N=C(/c3ccccc3)c3noc(=O)n3C)n2)c1` [Example 210], the LogP in data set [1] was 4.53 [a]. Also, in data set [2], the Eff. % was 75%.

Turning to `COC(C(=O)Nc1cccc(CO/N=C(/c2ccccc2)c2noc(=O)n2C)n1)c1ccccc1` (stereo not shown) [Example 218], in data set [1], the LogP was 3.85 [a]. In data set [2], this molecule returned an Eff. % of 80%.

On to `COc1ccccc1OC(C)C(=O)Nc1nc(CO/N=C(/c2ccccc2)c2noc(=O)n2C)cs1` (stereo not shown) [Example 219], for which the LogP in data set [1] was 3.89 [a]. For the same molecule, the Eff. % in data set [2] turned out to be 85%.

With `CCC(C)(C)C(=O)Nc1cccc(CO/N=C(/c2ccccc2)c2noc(=O)n2C)n1` [Example 221], in data set [1], the log partition coefficient (LogP) is 3.8 [a]. In addition, the Eff. % in data set [2] was found to be 100%.

As for `CCCCCOC(=O)Nc1cccc(CO/N=C(/c2cccc(C)c2)c2noc(=O)n2C)n1` [Example 224], the LogP in data set [1] was 4.78 [a]. In addition, the Eff. % in data set [2] was found to be 93%.

With `CC(C)COC(=O)Nc1cccc(CO/N=C(/c2ccccc2)c2noc(=O)n2C)n1` [Example 225], in data set [1], the LogP was 4.01 [a]. This molecule registered an Eff. % in data set [2] of 99%.

On to `Cc1ccc(OCC(=O)Nc2nc(CO/N=C(/c3ccccc3)c3noc(=O)n3C)cs2)cc1` [Example 229], for which, in data set [1], the LogP was 3.8 [a]. In data set [2], this molecule came in with an Eff. % of 100%.

Turning to `CC(Oc1ccccc1)C(=O)Nc1cccc(CO/N=C(/c2ccccc2)c2noc(=O)n2C)n1` (stereo not shown) [Example 232], the LogP in data set [1] is 3.96 [a]. This molecule yielded an Eff. % in data set [2] of 100%.

On to `CC(C)=CCCC(C)CC(=O)Nc1cccc(CO/N=C(/c2ccccc2)c2noc(=O)n2C)n1` (stereo not shown) [Example 235], for which the LogP in data set [1] is 4.88 [a]. The same molecule came in with an Eff. % in data set [2] of 100%.

Regarding `CC(CC1CCCCC1)Nc1cccc(CO/N=C(/c2ccccc2)c2noc(=O)n2C)n1` (stereo not shown) [Example 236], in data set [1], the lipophilicity (LogP) was 5.14 [a]. Further, the Eff. % in data set [2] was determined as 100%.

For `Cn1c(/C(=N\OCc2cccc(NC(=O)CC(F)(F)F)n2)c2ccccc2)noc1=O` [Example 237], the LogP in data set [1] is 3.19 [a]. Besides, in data set [2], the Eff. % stood at 97%.

Consider `Cn1c(/C(=N\OCc2csc(NC(=O)OCc3ccccc3)n2)c2ccccc2)noc1=O` [Example 239], for which the LogP in data set [1] was 3.73 [a]. This molecule showed an Eff. % in data set [2] of 84%.

Regarding `Cn1c(/C(=N\OCc2cccc(NC(=O)c3ccccc3Br)n2)c2ccccc2)noc1=O` [Example 243], the LogP in data set [1] is 3.67 [a]. In addition, the Eff. % in data set [2] is recorded as 99%.

`Cn1c(C(=NOCc2cccc(NC(=O)OC(C)(C)C)n2)c2ccc(F)cc2)noc1=O` [Example 246]: the LogP in data set [1] was 4.06 [a]. The same molecule yielded an Eff. % in data set [2] of 100%.

Regarding `Cn1c(C(=NOCc2cccc(NC(=O)CCCC(C)(C)C)n2)c2ccccc2)noc1=O` [Example 247], the LogP in data set [1] is 4.53 [a]. The molecule also returned an Eff. % in data set [2] of 99%.

`Cn1c(C(=NOCc2csc(NC(=O)c3ccc(F)cc3)n2)c2ccccc2)noc1=O` [Example 251]: the LogP in data set [1] is 3.55 [a]. The same molecule returned an Eff. % in data set [2] of 98%.

For `Cn1c(C(=NOCc2csc(NC(=O)c3ccccc3)n2)c2ccccc2)noc1=O` [Example 257], in data set [1], the log partition coefficient (LogP) is 3.44 [a]. The Eff. % in data set [2] is given as 100%.

Take `Cn1c(C(=NOCc2cccc(N(C(=O)OC(C)(C)C)C(=O)OC(C)(C)C)n2)c2cccc(F)c2)noc1=O` [Example 261]: the LogP in data set [1] was 4.51 [a]. Further, the Eff. % in data set [2] was determined as 100%.

Regarding `Cn1c(C(=NOCc2csc(NC(=O)c3cc(F)cc(F)c3)n2)c2ccccc2)noc1=O` [Example 263], in data set [1], the LogP is 3.8 [a]. In data set [2], this molecule had an Eff. % of 78%.

As to `Cn1c(C(=NOCc2cccc(NC(=O)Cc3cccs3)n2)c2ccccc2)noc1=O` [Example 264], in data set [1], the LogP is 3.42 [a]. In data set [2], this molecule showed an Eff. % of 94%.

Take `CCCC(=O)Nc1cccc(CON=C(c2ccccc2)c2noc(=O)n2C)n1` [Example 266]: the LogP in data set [1] is 3.13 [a]. In addition, the Eff. % in data set [2] is listed as 100%.

Consider `Cn1c(C(=NOCc2cccc(NC(=O)CCCC3CCCCC3)n2)c2ccccc2)noc1=O` [Example 267], for which the log partition coefficient (LogP) in data set [1] was 5.14 [a]. Also, in data set [2], the Eff. % is 97%.

Consider `CCCC(=O)Nc1nc(CON=C(c2ccccc2)c2noc(=O)n2C)cs1` [Example 271], for which the LogP in data set [1] is 3.02 [a]. The molecule further showed an Eff. % in data set [2] of 80%.
